The record followed here is patent US12565505B2, “mTORC modulators and uses thereof” (Aeovian Pharmaceuticals, Inc., priority 2019, dated 2026).

The target of assay [1] is T1, mTORC1 (Homo sapiens, UniProt P42345+P62942).
T1 construct: endogenous in cells; host or cells: PC3 cells (human prostate adenocarcinoma)
The assay can be described thus: Inhibition assay for mTORC1: phosphorylation of pS6K at Thr389, AlphaLISA SureFire in PC3 cells. Format: cell-based. The conditions noted are these: PC3 cells, 24 hours treatment, pS6K Thr389; analogs substituted at C40 and C16 (C16 diastereomer mixtures not isolated); read-out: pIC50 mTORC1 (converted). The procedure:
The IC50s of the inhibition of mTORC1 and mTORC2 were determined in vitro by determining the phosphorylation of pS6K at position Thr389 (mTORC1 inhibition) and pAkt at Ser473 (mTORC2 inhibition). In vitro studies were performed with AiphaLISA® technology using PC3 cells (Prostate Adenocarcinoma; Human (Homo sapiens)). The cells were seeded in 96 well plates and were treated for 24 hours with the different compounds. […] All analysis were performed using GraphPad Prism 7.0 (GraphPad Software, San Diego, USA).
Tables 5-7 include PIC50 values for mTORC1 of selected compounds; with compounds having an PIC50 for mTORC1 of >9.5 as A, 8.5 to 9.5 as B, and less than 8.5 as C.
For orientation: In Alpha technology, singlet oxygen from a donor bead excites a nearby acceptor bead.

Assay [2] concerns the target T2, mTORC2 (Homo sapiens, UniProt P42345+P62942).
T2 construct: endogenous in cells; host or cells: PC3 cells (human prostate adenocarcinoma)
Put plainly: Inhibition assay for mTORC2: phosphorylation of pAkt at Ser473, AlphaLISA SureFire in PC3 cells. Format: cell-based. Conditions: PC3 cells, 24 hours treatment, analogs substituted at C40 and C16 (C16 diastereomer mixtures not isolated), read-out: pIC50 mTORC2 (converted). The procedure: The IC50s of the inhibition of mTORC1 and mTORC2 were determined in vitro by determining the phosphorylation of pS6K at position Thr389 (mTORC1 inhibition) and pAkt at Ser473 (mTORC2 inhibition). In vitro studies were performed with AiphaLISA® technology using PC3 cells (Prostate Adenocarcinoma; Human (Homo sapiens)). The cells were seeded in 96 well plates and were treated for 24 hours with the different compounds. […] All analysis were performed using GraphPad Prism 7.0 (GraphPad Software, San Diego, USA). […]

A value given as a limit tells only on which side of the number the result lay.

In the case of `COCCOC1C[C@@H]2CC[C@@H](C)[C@@](O)(O2)C(=O)C(=O)N2CCCCC2C(=O)O[C@H]([C@H](C)C[C@@H]2CC[C@@H](OCCCN3CCN(C)CC3)[C@H](OC)C2)CC(=O)[C@H](C)/C=C(\C)[C@@H](O)[C@@H](OC)C(=O)[C@H](C)C[C@H](C)/C=C/C=C/C=C/1C` (stereo partly shown) [Compound 32], the IC50 in assay [1] is less than 0.316 nM; in assay [2], 1000 to 10000 nM.

`COCCOC1C[C@@H]2CC[C@@H](C)[C@@](O)(O2)C(=O)C(=O)N2CCCCC2C(=O)O[C@H]([C@H](C)C[C@@H]2CC[C@@H](OCCCN3CCCCC3)[C@H](OC)C2)CC(=O)[C@H](C)/C=C(\C)[C@@H](O)[C@@H](OC)C(=O)[C@H](C)C[C@H](C)/C=C/C=C/C=C/1C` (stereo partly shown) [Compound 35]: the IC50 in assay [1] was less than 0.316 nM; in assay [2], 1000 to 10000 nM.

`COCCOC1C[C@@H]2CC[C@@H](C)[C@@](O)(O2)C(=O)C(=O)N2CCCCC2C(=O)O[C@H]([C@H](C)C[C@@H]2CC[C@@H](OCCCN3CCO[C@H](C)C3)[C@H](OC)C2)CC(=O)[C@H](C)/C=C(\C)[C@@H](O)[C@@H](OC)C(=O)[C@H](C)C[C@H](C)/C=C/C=C/C=C/1C` (stereo partly shown) [Compound 36]: the IC50 in assay [1] is less than 0.316 nM; in assay [2], 1000 to 10000 nM.

Turning to `CO[C@@H]1C[C@H](C[C@@H](C)[C@@H]2CC(=O)[C@H](C)/C=C(\C)[C@@H](O)[C@@H](OC)C(=O)[C@H](C)C[C@H](C)/C=C/C=C/C=C(\C)C(OCCO)C[C@@H]3CC[C@@H](C)[C@@](O)(O3)C(=O)C(=O)N3CCCCC3C(=O)O2)CC[C@H]1OCCCc1ccccc1` (stereo partly shown) [Compound 38], the results for the IC50 in assay [1] and in assay [2] were 0.316 to 3.16 nM and more than 10000 nM, respectively.

In the case of `CO[C@@H]1C[C@H](C[C@@H](C)[C@@H]2CC(=O)[C@H](C)/C=C(\C)[C@@H](O)[C@@H](OC)C(=O)[C@H](C)C[C@H](C)/C=C/C=C/C=C(\C)C(OCCO)C[C@@H]3CC[C@@H](C)[C@@](O)(O3)C(=O)C(=O)N3CCCCC3C(=O)O2)CC[C@H]1OC(=O)N(C)CCN1CCOCC1` (stereo partly drawn) [Compound 41, [(1R,2R,4S)-4-[(2R)-2-[(1R,9S,12S,15R,16E,18R,19R,21R,23S,24E,26E,28E,32S,35R)-1,18-dihydroxy-30-(2-hydroxyethoxy)-19-methoxy-15,17,21,23,29,35-hexamethyl-2,3,10,14,20-pentaoxo-11,36-dioxa-4-azatricyclo[30.3.1.0^4,9]hexatriaconta-16,24,26,28-tetraen-12-yl]propyl]-2-methoxy-cyclohexyl] N-methyl-N-(2-morpholinoethyl)carbamate], the IC50 in assay [1] was less than 0.316 nM; in assay [2], 1000 to 10000 nM.

On to `COCCOC1C[C@@H]2CC[C@@H](C)[C@@](O)(O2)C(=O)C(=O)N2CCCCC2C(=O)O[C@H]([C@H](C)C[C@@H]2CC[C@@H](OCCN3CCN(C)CC3)[C@H](OC)C2)CC(=O)[C@H](C)/C=C(\C)[C@@H](O)[C@@H](OC)C(=O)[C@H](C)C[C@H](C)/C=C/C=C/C=C/1C` (stereo partly shown) [Compound 47], for which the IC50 is less than 0.316 nM in assay [1] and 1000 to 10000 nM in assay [2].

With `COCCOC1C[C@@H]2CC[C@@H](C)[C@@](O)(O2)C(=O)C(=O)N2CCCCC2C(=O)O[C@H]([C@H](C)C[C@@H]2CC[C@@H](OCCCN3CCOCC3)[C@H](OC)C2)CC(=O)[C@H](C)/C=C(\C)[C@@H](O)[C@@H](OC)C(=O)[C@H](C)C[C@H](C)/C=C/C=C/C=C/1C` (stereo partly shown) [Compound 48], the values for the IC50 in assay [1] and in assay [2] were less than 0.316 nM and 1000 to 10000 nM, respectively.

`CO[C@@H]1C[C@H](C[C@@H](C)[C@@H]2CC(=O)[C@H](C)/C=C(\C)[C@@H](O)[C@@H](OC)C(=O)[C@H](C)C[C@H](C)/C=C/C=C/C=C(\C)C(OCCO)C[C@@H]3CC[C@@H](C)[C@@](O)(O3)C(=O)C(=O)N3CCCCC3C(=O)O2)CC[C@H]1OCCCCN1CCOCC1` (stereo partly shown) [Compound 50]: the IC50 in assay [1] was less than 0.316 nM; in assay [2] it was 1000 to 10000 nM.

`COCCOC1C[C@@H]2CC[C@@H](C)[C@@](O)(O2)C(=O)C(=O)N2CCCCC2C(=O)O[C@H]([C@H](C)C[C@@H]2CC[C@@H](OCCN3CCCCC3)[C@H](OC)C2)CC(=O)[C@H](C)/C=C(\C)[C@@H](O)[C@@H](OC)C(=O)[C@H](C)C[C@H](C)/C=C/C=C/C=C/1C` (stereo partly shown) [Compound 51]: the values for the IC50 in assay [1] and in assay [2] were less than 0.316 nM and 1000 to 10000 nM, respectively.

With `CO[C@@H]1C[C@H](C[C@@H](C)[C@@H]2CC(=O)[C@H](C)/C=C(\C)[C@@H](O)[C@@H](OC)C(=O)[C@H](C)C[C@H](C)/C=C/C=C/C=C(\C)C(OCCOCCO)C[C@@H]3CC[C@@H](C)[C@@](O)(O3)C(=O)C(=O)N3CCCCC3C(=O)O2)CC[C@H]1OCCCO` (stereo partly shown) [Compound 53], the results for the IC50 in assay [1] and in assay [2] were 0.316 to 3.16 nM and more than 10000 nM, respectively.

With `COCCOC1C[C@@H]2CC[C@@H](C)[C@@](O)(O2)C(=O)C(=O)N2CCCCC2C(=O)O[C@H]([C@H](C)C[C@@H]2CC[C@@H](OCCCN3CCC[C@H](O)C3)[C@H](OC)C2)CC(=O)[C@H](C)/C=C(\C)[C@@H](O)[C@@H](OC)C(=O)[C@H](C)C[C@H](C)/C=C/C=C/C=C/1C` (stereo partly shown) [Compound 54], the IC50 is less than 0.316 nM in assay [1] and 1000 to 10000 nM in assay [2].

Regarding `CO[C@@H]1C[C@H](C[C@@H](C)[C@@H]2CC(=O)[C@H](C)/C=C(\C)[C@@H](O)[C@@H](OC)C(=O)[C@H](C)C[C@H](C)/C=C/C=C/C=C(\C)C(OCCO)C[C@@H]3CC[C@@H](C)[C@@](O)(O3)C(=O)C(=O)N3CCCCC3C(=O)O2)CC[C@H]1OCCCN1CCOCC1` (stereo partly drawn) [Compound 55, (1R,9S,12SR,15R,16E,18R,19R,21R,23S,24E,26E,28E,32S,35R)-1,18-dihydroxy-30-(2-hydroxyethoxy)-19-methoxy-12-[(1R)-2-[(1S,3R,4R)-3-methoxy-4-(3-morpholinopropoxy)cyclohexyl]-1-methyl-ethyl]-15,17,21,23,29,35-hexamethyl-11,36-dioxa-4-azatricyclo[30.3.1.0^4,9]hexatriaconta-16,24,26,28-tetraene-2,3,10,14,20-pentone], the figures for the IC50 in assay [1] and in assay [2] were less than 0.316 nM and 1000 to 10000 nM, respectively.

`COCCOC1C[C@@H]2CC[C@@H](C)[C@@](O)(O2)C(=O)C(=O)N2CCCCC2C(=O)O[C@H]([C@H](C)C[C@@H]2CC[C@@H](OCCCCN3CCOCC3)[C@H](OC)C2)CC(=O)[C@H](C)/C=C(\C)[C@@H](O)[C@@H](OC)C(=O)[C@H](C)C[C@H](C)/C=C/C=C/C=C/1C` (stereo partly shown) [Compound 56]: the values for the IC50 in assay [1] and in assay [2] were less than 0.316 nM and 1000 to 10000 nM, respectively.

For `COCCOC1C[C@@H]2CC[C@@H](C)[C@@](O)(O2)C(=O)C(=O)N2CCCCC2C(=O)O[C@H]([C@H](C)C[C@@H]2CC[C@@H](OC(=O)NCCN3CCCCC3)[C@H](OC)C2)CC(=O)[C@H](C)/C=C(\C)[C@@H](O)[C@@H](OC)C(=O)[C@H](C)C[C@H](C)/C=C/C=C/C=C/1C` (stereo partly shown) [Compound 57], the IC50 is less than 0.316 nM in assay [1] and 1000 to 10000 nM in assay [2].

Consider `COCCOC1C[C@@H]2CC[C@@H](C)[C@@](O)(O2)C(=O)C(=O)N2CCCCC2C(=O)O[C@H]([C@H](C)C[C@@H]2CC[C@@H](OC[C@@H](O)CO)[C@H](OC)C2)CC(=O)[C@H](C)/C=C(\C)[C@@H](O)[C@@H](OC)C(=O)[C@H](C)C[C@H](C)/C=C/C=C/C=C/1C` (stereo partly shown) [Compound 58], for which the values for the IC50 in assay [1] and in assay [2] were less than 0.316 nM and 1000 to 10000 nM, respectively.

On to `COCCOC1C[C@@H]2CC[C@@H](C)[C@@](O)(O2)C(=O)C(=O)N2CCCCC2C(=O)O[C@H]([C@H](C)C[C@@H]2CC[C@@H](OCCCN3C[C@@H](C)O[C@@H](C)C3)[C@H](OC)C2)CC(=O)[C@H](C)/C=C(\C)[C@@H](O)[C@@H](OC)C(=O)[C@H](C)C[C@H](C)/C=C/C=C/C=C/1C` (stereo partly shown) [Compound 59], for which the results for the IC50 in assay [1] and in assay [2] were less than 0.316 nM and 1000 to 10000 nM, respectively.

Take `CO[C@@H]1C[C@H](C[C@@H](C)[C@@H]2CC(=O)[C@H](C)/C=C(\C)[C@@H](O)[C@@H](OC)C(=O)[C@H](C)C[C@H](C)/C=C/C=C/C=C(\C)C(OCCCCO)C[C@@H]3CC[C@@H](C)[C@@](O)(O3)C(=O)C(=O)N3CCCCC3C(=O)O2)CC[C@H]1OCCO` (stereo partly shown) [Compound 63]: the IC50 is less than 0.316 nM in assay [1] and 1000 to 10000 nM in assay [2].

As to `CO[C@@H]1C[C@H](C[C@@H](C)[C@@H]2CC(=O)[C@H](C)/C=C(\C)[C@@H](O)[C@@H](OC)C(=O)[C@H](C)C[C@H](C)/C=C/C=C/C=C(\C)C(OCCO)C[C@@H]3CC[C@@H](C)[C@@](O)(O3)C(=O)C(=O)N3CCCCC3C(=O)O2)CC[C@H]1OC(=O)NCCO` (stereo partly shown) [Compound 64], the IC50 is 0.316 to 3.16 nM in assay [1] and more than 10000 nM in assay [2].

As to `COCCCCOC1C[C@@H]2CC[C@@H](C)[C@@](O)(O2)C(=O)C(=O)N2CCCCC2C(=O)O[C@H]([C@H](C)C[C@@H]2CC[C@@H](OCCCN3CCOCC3)[C@H](OC)C2)CC(=O)[C@H](C)/C=C(\C)[C@@H](O)[C@@H](OC)C(=O)[C@H](C)C[C@H](C)/C=C/C=C/C=C/1C` (stereo partly shown) [Compound 65], the IC50 was less than 0.316 nM in assay [1] and 1000 to 10000 nM in assay [2].

For the compound `CO[C@@H]1C[C@H](C[C@@H](C)[C@@H]2CC(=O)[C@H](C)/C=C(\C)[C@@H](O)[C@@H](OC)C(=O)[C@H](C)C[C@H](C)/C=C/C=C/C=C(\C)C(OCCOCCO)C[C@@H]3CC[C@@H](C)[C@@](O)(O3)C(=O)C(=O)N3CCCCC3C(=O)O2)CC[C@H]1OCCO` (stereo partly shown) [Compound 69], the values for the IC50 in assay [1] and in assay [2] were 0.316 to 3.16 nM and more than 10000 nM, respectively.
